Holding throughout (format): functional, cell-based
In one assay the test system is MDA-MB-231. The assay is described as follows: Antiproliferative activity against human MDA-MB-231 cells.
For a further assay, the system named is A549. The assay is described as follows: Antiproliferative activity against human A549 cells.
In another assay the test system is MGC-803. The assay is described as follows: Antiproliferative activity against human MGC-803 cells.

For orientation: IC50 means the concentration that gives 50% inhibition. High values mean weaker potency, low ones greater potency.

SMILES strings stand for the structures. A value given as a limit tells only on which side of the number the result lay.

Turning to `Cc1ccc(-c2nc3ccccn3c2CC(=O)Nc2ccc3c(c2)S(=O)(=O)C=C3)cc1`, the IC50 in the assay on MDA-MB-231 is 4.1 µM; in the assay on A549, 5.5 µM; with MGC-803, 2.7 µM.

On to `CCOC(=O)COc1ccc2c(C(=O)NCc3ccc(C4CCCCC4)cc3)cc(-c3ccccc3)nc2c1`, for which the IC50 with MDA-MB-231, in the assay on A549 and in the assay with MGC-803 was over 100 µM each time.

`COc1ccc2c(C(=O)Nc3ccc(-c4ccc(SC)cc4)cc3)cc(-c3ccccc3)nc2c1`: the IC50 turned out to be 20.2 µM in the assay with MDA-MB-231, 15.6 µM in the assay with A549 and 15.6 µM in the assay with MGC-803.

Turning to `COc1ccc2c(C(=O)Nc3ccc(-c4cccnc4)cc3)cc(-c3ccccc3)nc2c1`, the IC50 was over 100 µM in the assay on MDA-MB-231, over 100 µM with A549 and 64.8 µM in the assay with MGC-803.

For `Cc1ccc(-c2nc3ccc(C)cn3c2CC(=O)Nc2ccc3c(c2)S(=O)(=O)C=C3)cc1`, the concentration for half-maximal inhibition (IC50) in the assay with MDA-MB-231 was found to be 2.1 µM; in the assay on A549, 0.9 µM; in the assay on MGC-803, 1.8 µM.

For `COc1ccn2c(CC(=O)Nc3ccc4c(c3)S(=O)(=O)C=C4)c(-c3ccc4ccccc4c3)nc2c1`, the IC50 came to 1.4 µM with MDA-MB-231, 1 µM in the assay with A549 and 1.5 µM with MGC-803.

`COc1ccc2c(C(=O)Nc3ccc(Br)cc3)cc(-c3ccccc3)nc2c1`: the values for the IC50 in the assay on MDA-MB-231, in the assay with A549 and in the assay on MGC-803 were 25.5 µM, 21.4 µM and 15.5 µM, respectively.

Turning to `COc1ccc(NC(=O)c2cc(-c3ccccc3)nc3cc(OC)ccc23)cc1`, the IC50 in the assay with MDA-MB-231, in the assay on A549 and in the assay on MGC-803 was over 100 µM throughout.

For the molecule `COc1ccc2c(C(=O)Nc3ccc(-c4ccc5cc[nH]c5c4)cc3)cc(-c3ccccc3)nc2c1`, the IC50 in the assay with MDA-MB-231, in the assay with A549 and with MGC-803 was over 100 µM each time.

With `COc1ccn2c(CC(=O)Nc3ccc4c(c3)S(=O)(=O)C=C4)c(-c3ccc([N+](=O)[O-])cc3)nc2c1`, the IC50 with MDA-MB-231 amounted to 4.4 µM; with A549, 1.7 µM; with MGC-803, 2.6 µM.

Consider `COc1ccc2nc(-c3ccccc3)c(CC(=O)Nc3ccc4c(c3)S(=O)(=O)C=C4)n2c1`, for which the IC50 in the assay on MDA-MB-231 is 2.1 µM; in the assay with A549 it was 1.2 µM; in the assay with MGC-803 it was 1.7 µM.

Consider `COc1ccn2c(CC(=O)Nc3ccc(C4CCCCC4)cc3)c(-c3ccccc3)nc2c1`, for which the IC50 worked out at 5.4 µM in the assay on MDA-MB-231, 5.6 µM with A549 and 4.7 µM in the assay with MGC-803.

Consider `CS(=O)(=O)c1ccc(-c2nc3ccccn3c2CC(=O)Nc2ccc3c(c2)S(=O)(=O)C=C3)cc1`, for which the 50% inhibitory concentration (IC50) with MDA-MB-231 was determined as 6.4 µM; in the assay with A549, 7.5 µM; with MGC-803, 6.9 µM.

On to `O=C(O)COc1ccc2c(C(=O)Nc3ccc(C4CCCCC4)cc3)cc(-c3ccccc3)nc2c1`, for which the IC50 with MDA-MB-231, in the assay on A549 and in the assay with MGC-803 was over 100 µM in each case.

On to `COc1ccc2c(C(=O)Nc3ccc(-c4ccc(F)cc4)cc3)cc(-c3ccccc3)nc2c1`, for which the results for the IC50 in the assay on MDA-MB-231, in the assay on A549 and in the assay on MGC-803 were 11.2 µM, 29.9 µM and 40.4 µM, respectively.

On to `COc1ccn2c(CC(=O)Nc3ccc(-c4ccccc4)cc3)c(-c3ccccc3)nc2c1`, for which the IC50 is 10.5 µM in the assay with MDA-MB-231, 3.2 µM in the assay with A549 and 3.5 µM with MGC-803.

For `O=C(O)COc1ccc2c(C(=O)NCc3ccc(C4CCCCC4)cc3)cc(-c3ccccc3)nc2c1`, the IC50 with MDA-MB-231, in the assay on A549 and in the assay with MGC-803 was over 100 µM in each case.

In the case of `O=C(Cc1c(-c2ccccc2)nc2cc(Br)ccn12)Nc1ccc2c(c1)S(=O)(=O)C=C2`, the IC50 in the assay on MDA-MB-231 came out at 0.9 µM; in the assay on A549, 0.8 µM; in the assay with MGC-803, 0.9 µM.

Consider `O=C(Cc1c(-c2ccccc2)nc2cc(-c3ccccc3)ccn12)Nc1ccc2c(c1)S(=O)(=O)C=C2`, for which the figures for the IC50 with MDA-MB-231, in the assay on A549 and in the assay with MGC-803 were 2.4 µM, 1.1 µM and 1.7 µM, respectively.

For `COc1ccn2c(CC(=O)Nc3ccc4c(c3)S(=O)(=O)C=C4)c(-c3cccs3)nc2c1`, the IC50 in the assay with MDA-MB-231 amounted to 1.4 µM; in the assay with A549, 1.1 µM; in the assay with MGC-803, 1.3 µM.

For the molecule `CCCCc1ccc(NC(=O)c2cc(-c3ccccc3)nc3cc(OC)ccc23)cc1`, the IC50 in the assay on MDA-MB-231 is over 100 µM; in the assay with A549, 40.9 µM; with MGC-803, 39.6 µM.

As to `COc1ccc(-c2ccc(NC(=O)c3cc(-c4ccccc4)nc4cc(OC)ccc34)cc2)cc1`, the IC50 came to 21 µM in the assay with MDA-MB-231, 4.9 µM with A549 and 5.8 µM in the assay with MGC-803.

Regarding `COc1ccc2c(C(=O)Nc3ccc(-c4cc5ccccc5o4)cc3)cc(-c3ccccc3)nc2c1`, the IC50 in the assay with MDA-MB-231 amounted to 5.3 µM; in the assay with A549 it was 4.3 µM; with MGC-803, 4.8 µM.

As to `COc1ccc2c(C(=O)Nc3ccc(F)cc3)cc(-c3ccccc3)nc2c1`, the IC50 in the assay with MDA-MB-231, in the assay on A549 and in the assay with MGC-803 was over 100 µM in each case.

Turning to `Cc1ccc2nc(-c3ccc(C#N)cc3)c(CC(=O)Nc3ccc4c(c3)S(=O)(=O)C=C4)n2c1`, the IC50 with MDA-MB-231 was 2 µM; in the assay with A549, 2.5 µM; with MGC-803, 2.4 µM.

`Cc1ccn2c(CC(=O)Nc3ccc4c(c3)S(=O)(=O)C=C4)c(-c3ccccc3)nc2c1`: the IC50 in the assay with MDA-MB-231 is 1.6 µM; in the assay with A549, 0.7 µM; in the assay with MGC-803 it was 1 µM.

In the case of `Cc1ccc2nc(-c3ccc(Cl)cc3)c(CC(=O)Nc3ccc4c(c3)S(=O)(=O)C=C4)n2c1`, the results for the IC50 in the assay on MDA-MB-231, in the assay on A549 and with MGC-803 were 2 µM, 1.2 µM and 1.6 µM, respectively.

Consider `COc1ccc2c(C(=O)Nc3ccc(C4CCCCC4)cc3)cc(-c3ccccc3)nc2c1`, for which the IC50 with MDA-MB-231 worked out at 5.9 µM; in the assay with A549, 4.9 µM; in the assay on MGC-803, 4.9 µM.

Consider `CCOC(=O)COc1ccc2c(C(=O)Nc3ccc(C4CCCCC4)cc3)cc(-c3ccccc3)nc2c1`, for which the IC50 with MDA-MB-231, in the assay with A549 and in the assay on MGC-803 was over 100 µM each time.

As for `COc1ccc2c(C(=O)NCc3ccc(C4CCCCC4)cc3)cc(-c3ccccc3)nc2c1`, the IC50 in the assay with MDA-MB-231, in the assay on A549 and in the assay with MGC-803 was over 100 µM each time.

For the molecule `O=C(Nc1ccc(C2CCCCC2)cc1)c1cc(-c2ccccc2)nc2cc(O)ccc12`, the IC50 with MDA-MB-231, in the assay on A549 and with MGC-803 was over 100 µM each time.

On to `COc1ccc2c(C(=O)Nc3ccc(Cl)cc3)cc(-c3ccccc3)nc2c1`, for which the values for the IC50 with MDA-MB-231, in the assay with A549 and in the assay with MGC-803 were over 100 µM, over 100 µM and 50.4 µM, respectively.

As for `COc1ccc2c(C(=O)Nc3ccc(-c4ccc(C(C)C)cc4)cc3)cc(-c3ccccc3)nc2c1`, the IC50 in the assay on MDA-MB-231, with A549 and in the assay on MGC-803 was over 100 µM throughout.

As to `Cn1cc(-c2ccn3c(CC(=O)Nc4ccc5c(c4)S(=O)(=O)C=C5)c(-c4ccccc4)nc3c2)cn1`, the values for the IC50 in the assay with MDA-MB-231, with A549 and in the assay on MGC-803 were 1.4 µM, 0.8 µM and 0.7 µM, respectively.

As to `COc1ccc2c(C(=O)Nc3ccc(-c4ccccc4)cc3)cc(-c3ccccc3)nc2c1`, the IC50 in the assay on MDA-MB-231 came to 5.3 µM; in the assay with A549, 3 µM; in the assay with MGC-803, 2.6 µM.

Consider `COc1ccn2c(CC(=O)Nc3ccc(-c4ccco4)cc3)c(-c3ccccc3)nc2c1`, for which the values for the IC50 in the assay with MDA-MB-231, with A549 and with MGC-803 were 10 µM, 6.6 µM and 2.5 µM, respectively.

With `O=C(Cc1c(-c2ccccc2)nc2cc(Cl)ccn12)Nc1ccc2c(c1)S(=O)(=O)C=C2`, the IC50 in the assay with MDA-MB-231 was 1.1 µM; with A549, 0.7 µM; in the assay with MGC-803 it was 1.3 µM.

On to `COc1ccc2c(C(=O)Nc3ccc(-c4cccs4)cc3)cc(-c3ccccc3)nc2c1`, for which the IC50 amounted to 10.8 µM in the assay on MDA-MB-231, 15 µM in the assay with A549 and 15 µM in the assay on MGC-803.

As for `O=C(Cc1c(-c2ccccc2)nc2ccc(Br)cn12)Nc1ccc2c(c1)S(=O)(=O)C=C2`, the values for the IC50 with MDA-MB-231, in the assay with A549 and in the assay on MGC-803 were 2 µM, 0.8 µM and 1.5 µM, respectively.

As to `COc1ccn2c(C(=O)Nc3ccc(C4CCCCC4)cc3)c(-c3ccccc3)nc2c1`, the IC50 in the assay with MDA-MB-231, in the assay with A549 and with MGC-803 was over 100 µM in each case.

In the case of `O=C(Cc1c(-c2ccc([N+](=O)[O-])cc2)nc2ccccn12)Nc1ccc2c(c1)S(=O)(=O)C=C2`, the concentration for half-maximal inhibition (IC50) with MDA-MB-231 is 6.5 µM; with A549 it was 5.4 µM; in the assay on MGC-803, 5.2 µM.

For `O=C(NCc1ccc(C2CCCCC2)cc1)c1cc(-c2ccccc2)nc2ccccc12`, the IC50 with MDA-MB-231 is over 100 µM; in the assay with A549, over 100 µM; in the assay with MGC-803, 20.1 µM.

For the molecule `O=C(NCc1ccc(C2CCCCC2)cc1)c1cc(-c2ccccc2)nc2cc(O)ccc12`, the IC50 worked out at 50 µM with MDA-MB-231, 16.6 µM with A549 and 14.6 µM in the assay with MGC-803.

Regarding `COc1ccc2c(C(=O)Nc3ccc(C(C)C)cc3)cc(-c3ccccc3)nc2c1`, the IC50 with MDA-MB-231, with A549 and with MGC-803 was over 100 µM in each case.

Turning to `COc1ccn2c(CC(=O)Nc3ccc4c(c3)S(=O)(=O)C=C4)c(-c3ccc(S(C)(=O)=O)cc3)nc2c1`, the figures for the IC50 in the assay with MDA-MB-231, in the assay with A549 and in the assay on MGC-803 were 5.8 µM, 5.8 µM and 6.4 µM, respectively.

For the molecule `COc1ccc(-c2ccn3c(CC(=O)Nc4ccc5c(c4)S(=O)(=O)C=C5)c(-c4ccccc4)nc3c2)cc1`, the results for the IC50 in the assay with MDA-MB-231, with A549 and in the assay on MGC-803 were 1 µM, 0.7 µM and 0.5 µM, respectively.

Regarding `COc1ccn2c(CC(=O)Nc3ccc4c(c3)S(=O)(=O)C=C4)c(-c3ccc(F)cc3)nc2c1`, the IC50 in the assay with MDA-MB-231 was determined as 5.1 µM; with A549, 1.3 µM; with MGC-803 it was 0.9 µM.

Regarding `O=C(Nc1ccc(C2CCCCC2)cc1)c1cc(-c2ccccc2)nc2ccccc12`, the IC50 in the assay on MDA-MB-231 was found to be 10 µM; with A549, 5.8 µM; with MGC-803, 5.9 µM.

With `COc1ccc2c(C(=O)Nc3ccc(-c4ccco4)cc3)cc(-c3ccccc3)nc2c1`, the IC50 is 10.3 µM in the assay on MDA-MB-231, 5.5 µM in the assay on A549 and 2.1 µM with MGC-803.

Turning to `O=C(Cc1cnc2ccccn12)Nc1ccc2c(c1)S(=O)(=O)C=C2`, the IC50 with MDA-MB-231 amounted to 20.2 µM; in the assay on A549 it was 23.4 µM; in the assay with MGC-803, 22.5 µM.

As to `COc1cccn2c(CC(=O)Nc3ccc4c(c3)S(=O)(=O)C=C4)c(-c3ccccc3)nc12`, the IC50 in the assay on MDA-MB-231 was determined as 2.2 µM; with A549, 1 µM; in the assay on MGC-803 it was 1.7 µM.

The values above are taken from ChEMBL document CHEMBL4825680, “Structure-based discovery of potent and selective small-molecule inhibitors targeting signal transducer and activator of transcription 3 (STAT3)” (Eur J Med Chem, 2021).
